Test results published in patent US9085576B2 (AMGEN INC., priority 2013, dated 2015).

Columns and labels:
[1] = target: Beta Secretase enzyme (BACE) (Homo sapiens (Human), UniProt P56817); test: In vitro enzymatic BACE FRET assay; assay type: biochemical; conditions: read-out: BACE1 Enzyme assay IC50
[2] = target: Cathepsin D (Cat D) (Homo sapiens (Human), UniProt P07339); test: In vitro enzymatic Cathepsin D (Cat D) FRET assay; assay type: biochemical; conditions: read-out: CatD IC50
[3] = system: Abeta 40; test: In vivo inhibition of beta-secretase: Abeta 40 reduction in CSF and brain of the rat; conditions: 10 mpk, after 4 hrs; for % reduction of rat CSF levels at 10 pmk: Abeta 40 in rat CSF; for % reduction of rat brain levels at 10 mpk: Abeta 40 in rat brain
Source text: In Vivo Inhibition of Beta-Secretase
Several animal models, including mouse, rat, dog, and monkey, may be used to screen for inhibition of beta-secretase activity in vivo following administration of a test compound sample. […] A separate group of animals receive 2% hydroxypropyl methylcellulose, 1% Tween80 alone, containing no test compound, and serve as a vehicle-control group. At the end of the test period, animals are sacrificed and brain tissues, plasma or cerebrospinal fluid are collected. […] Homogenates are centrifuged at 355,000 g, 4° C. for 30 minutes. CSF or brain supernatants are then analyzed for the presence of A-beta peptide by specific sandwich ELISA assays based on ECL (Electrochemiluminescence) technology. For example, rat Abeta40 is measured using biotinylated-4G8 (Signet) as a capture antibody and Fab40 (an in-house antibody specific to the C-terminal of Abeta40) as a detection antibody.
Actual vehicles used: Oral: 2% HPMC, 1% Tween80, pH 2.2

[4] = target: BACE (Homo sapiens (Human), UniProt P56817); test: In vitro BACE cell-based assay (Aβ40 in conditioned medium, sandwich ELISA)
BACE, sequence (P56817 46-501, species assumed): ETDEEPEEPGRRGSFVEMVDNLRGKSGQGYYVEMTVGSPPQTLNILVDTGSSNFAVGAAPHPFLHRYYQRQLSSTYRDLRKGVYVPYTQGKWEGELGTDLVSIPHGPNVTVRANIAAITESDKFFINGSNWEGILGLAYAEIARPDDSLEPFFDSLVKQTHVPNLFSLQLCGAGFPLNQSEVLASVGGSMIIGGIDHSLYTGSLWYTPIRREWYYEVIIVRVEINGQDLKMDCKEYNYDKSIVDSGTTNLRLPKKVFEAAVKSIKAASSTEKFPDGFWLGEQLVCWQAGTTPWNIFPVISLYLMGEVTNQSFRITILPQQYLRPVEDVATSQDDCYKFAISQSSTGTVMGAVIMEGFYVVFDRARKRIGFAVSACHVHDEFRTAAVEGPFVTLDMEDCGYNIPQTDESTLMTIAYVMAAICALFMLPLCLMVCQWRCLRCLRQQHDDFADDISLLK

Beta Secretase enzyme (BACE), sequence (P56817 46-501): as the sequence (P56817 46-501, species assumed) above
Cathepsin D (Cat D), sequence (P07339 65-412, species assumed): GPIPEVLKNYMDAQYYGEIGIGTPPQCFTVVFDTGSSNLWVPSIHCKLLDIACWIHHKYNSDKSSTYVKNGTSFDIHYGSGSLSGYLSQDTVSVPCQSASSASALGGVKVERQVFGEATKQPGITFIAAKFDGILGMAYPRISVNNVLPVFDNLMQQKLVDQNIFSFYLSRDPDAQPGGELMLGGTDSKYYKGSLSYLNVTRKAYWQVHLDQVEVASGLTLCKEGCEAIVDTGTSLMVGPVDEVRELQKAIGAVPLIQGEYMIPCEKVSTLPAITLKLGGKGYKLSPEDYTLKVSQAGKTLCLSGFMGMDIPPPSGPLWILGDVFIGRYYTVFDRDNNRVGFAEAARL

Compound | IC50 [1] | IC50 [2] | % reduction of rat CSF levels at 10 pmk [3] | % reduction of rat brain levels at 10 mpk [3] | IC50 [4]
NC1=N[C@](CF)(c2cc(NC(=O)c3ccc(Cl)cn3)ccc2F)[C@H]2C[C@H]2O1 [Example 117, N-(3-((1R,5S,6R)-3-amino-5-(fluoromethyl)-2-oxa-4-azabicyclo[4.1.0]hept-3-en-5-yl)-4-fluorophenyl)-5-chloropicolinamide] | 21.1 nM | 472000 nM | 78% | 71% | 0.0053 µM
N#Cc1cnc(C(=O)Nc2ccc(Cl)c([C@@]3(CF)N=C(N)O[C@@H]4C[C@@H]43)c2)c(Cl)c1 [Example 127] | 39.5 nM | 997000 nM | 67% | 50% | 0.0078 µM
COc1ccc(C(=O)Nc2ccc(F)c([C@@]3(C(F)F)N=C(N)O[C@@H]4C[C@@H]43)c2)nc1 [Example 130, N-(3-((1R,5S,6R)-3-amino-5-(difluoromethyl)-2-oxa-4-azabicyclo[4.1.0]hept-3-en-5-yl)-4-fluorophenyl)-5-methoxypicolinamide] | 84.5 nM | 988000 nM | 49% | 23% | 0.0586 µM
NC1=N[C@@](c2cc(NC(=O)c3nn(C(F)F)cc3Cl)ccc2F)(C(F)F)[C@H]2C[C@H]2O1 [Example 163, N-(3-((1R,5S,6R)-3-amino-5-(difluoromethyl)-2-oxa-4-azabicyclo[4.1.0]hept-3-en-5-yl)-4-fluorophenyl)-4-chloro-1-(difluoromethyl)-1H-pyrazole-3-carboxamide] | – | 464000 nM | 33% | 14% | –
NC1=N[C@@](c2cc(NC(=O)c3cnc(OCc4ncco4)cn3)ccc2F)(C(F)F)[C@H]2C[C@H]2O1 [Example 167, N-(3-((1R,5S,6R)-3-amino-5-(difluoromethyl)-2-oxa-4-azabicyclo[4.1.0]hept-3-en-5-yl)-4-fluorophenyl)-5-(oxazol-2-ylmethoxy)pyrazine-2-carboxamide] | 12.4 nM | 767000 nM | 60% | 41% | 0.0103 µM
NC1=N[C@@](c2cc(NC(=O)c3cnc(OCc4cocn4)cn3)ccc2F)(C(F)F)[C@H]2C[C@H]2O1 [Example 174, N-(3-((1R,5S,6R)-3-amino-5-(difluoromethyl)-2-oxa-4-azabicyclo[4.1.0]hept-3-en-5-yl)-4-fluorophenyl)-5-(oxazol-4-ylmethoxy)pyrazine-2-carboxamide] | 23.3 nM | 925000 nM | 46% | 26% | 0.0186 µM
N#Cc1ccc(C(=O)Nc2ccc(F)c([C@@]3(CF)N=C(N)O[C@@H]4C[C@@H]43)c2)nc1 [Example 192, N-(3-((1R,5S,6R)-3-amino-5-(fluoromethyl)-2-oxa-4-azabicyclo[4.1.0]hept-3-en-5-yl)-4-fluorophenyl)-5-cyanopicolinamide] | 25.6 nM | 591000 nM | 81% | 71% | 0.0079 µM
NC1=N[C@](CF)(c2cc(NC(=O)c3ncc(Cl)cc3Cl)ccc2F)[C@H]2C[C@H]2O1 [Example 193] | 44.9 nM | 875000 nM | 75% | 67% | 0.0108 µM
CC#CCOc1cnc(C(=O)Nc2ccc(F)c([C@@]3(CF)N=C(N)O[C@@H]4C[C@@H]43)c2)cn1 [Example 199, N-(3-((1R,5S,6R)-3-amino-5-(fluoromethyl)-2-oxa-4-azabicyclo[4.1.0]hept-3-en-5-yl)-4-fluorophenyl)-5-(but-2-yn-1-yloxy)pyrazine-2-carboxamide] | 2.2 nM | 959000 nM | 62% | 42% | 0.0005 µM
NC1=N[C@@](c2cc(NC(=O)c3ncc(Br)cn3)ccc2F)(C(F)F)[C@H]2C[C@H]2O1 [Example 267, N-(3-((1R,5S,6R)-3-amino-5-(difluoromethyl)-2-oxa-4-azabicyclo[4.1.0]hept-3-en-5-yl)-4-fluorophenyl)-5-bromopyrimidine-2-carboxamide] | – | – | −1% | 11% | 0.015 µM
Cc1cc(Cl)cnc1C(=O)Nc1cc(C)c(F)c([C@@]2(C(F)F)N=C(N)O[C@@H]3C[C@@H]32)c1 [Example 303, N-(3-((1R,5S,6R)-3-amino-5-(difluoromethyl)-2-oxa-4-azabicyclo[4.1.0]hept-3-en-5-yl)-4-fluoro-5-methylphenyl)-5-chloro-3-methylpicolinamide] | – | 335000 nM | 57% | 50% | –
